ChEMBL document CHEMBL5620374, “Synthesis and bioevaluation of novel stilbene-based derivatives as tubulin/HDAC dual-target inhibitors with potent antitumor activities in vitro and in vivo” (Eur J Med Chem, 2023)

Assays:
K562 [1] = assay: Antiproliferative activity against human K562 cells incubated for 72 hrs by MTT assay; type: functional, cell-based; conditions: K562, 72 h
B16-F10 = assay: Antiproliferative activity against mouse B16-F10 cells incubated for 72 hrs by MTT assay; type: functional, cell-based; conditions: B16-F10, 72 h
[2] = Antiproliferative activity against human HFL1 cells incubated for 72 hrs by MTT assay; type: toxicity, cell-based
MCF7 = assay: cells; conditions: Homo sapiens, MCF7, 72 h
Description: Antiproliferative activity against human MCF7 cells incubated for 72 hrs by MTT assay

MDA-MB-231 = assay: cells; conditions: Homo sapiens, MDA-MB-231, 72 h
Description: Antiproliferative activity against human MDA-MB-231 cells incubated for 72 hrs by MTT assay

A549 = assay: cells; conditions: Homo sapiens, A549, 72 h
Description: Antiproliferative activity against human A549 cells incubated for 72 hrs by MTT assay

A2780 = assay: cells; conditions: Homo sapiens, A2780, 72 h
Description: Antiproliferative activity against human A2780 cells incubated for 72 hrs by MTT assay

K562 [3] = assay: Antiproliferative activity against human K562 cells assessed as cell inhibition rate at 1 uM incubated for 72 hrs by MTT assay relative to control; type: functional
K562 [4] = assay: Antiproliferative activity against human K562 cells assessed as cell inhibition rate at 0.1 uM incubated for 72 hrs by MTT assay relative to control; type: functional
K562 [5] = assay: Antiproliferative activity against human K562 cells assessed as cell inhibition rate at 0.01 uM incubated for 72 hrs by MTT assay relative to control; type: functional

`C=C(c1ccc(OC)c(OC(C)C(=O)NO)c1)c1ccnc2ccccc12` (stereo not drawn) showed an IC50 (K562 [1]) of 69 nM.
`C=C(c1ccnc(C)c1)c1ccc(OC)c(OCC(=O)NO)c1` gave an IC50 (K562 [1]) of 107 nM.
Work on `C=C(c1cc(C)nc(C)c1)c1ccc(OC)c(OCCCC(=O)NO)c1` yielded an IC50 (K562 [1]) of 516 nM.
In the case of `C=C(c1ccc(OC)c(OCCC(=O)NO)c1)c1cc(C)nc2ccccc12`, the IC50 (K562 [1]) is reported as 61 nM.
Work on `C=C(c1cc(C)nc(C)c1)c1ccc(OC)c(OC(C)C(=O)NO)c1` (stereo not drawn) yielded an IC50 (K562 [1]) of 19 nM, an IC50 (B16-F10) of 72 nM and an IC50 at 72 h [2] of 213 nM. The IC50 (MCF7) was 19 nM, the IC50 (MDA-MB-231) was 99 nM and the IC50 (A549) was 80 nM. It also gave an IC50 (A2780) of 23 nM.
With `C=C(c1ccc(OC)c(OCCCCC(=O)NO)c1)c1cc(C)nc2ccccc12` the IC50 (K562 [1]) was 1840 nM.
With `C=C(c1ccc(OC)cc1)c1cc(C(=O)Nc2ccccc2N)nc2ccccc12` the inhibition at 1 µM (K562 [3]) was 1.1%, the inhibition at 0.1 µM (K562 [4]) was 0.24% and the inhibition at 0.01 µM (K562 [5]) was -0.16%.
Compound `C=C(c1ccnc(OC)c1)c1ccc(OC)c(OC(C)C(=O)NO)c1` (stereo not drawn) has an IC50 (K562 [1]) of 61 nM.
For `C=C(c1ccc(OC)c(OC(C)(C)C(=O)NO)c1)c1cc(C)nc2ccccc12`, the IC50 (K562 [1]) was 5 nM, the IC50 (B16-F10) was 4 nM and the IC50 at 72 h [2] was 103 nM. It also gave an IC50 (MCF7) of 44 nM, an IC50 (MDA-MB-231) of 31 nM and an IC50 (A549) of 9 nM. For the same compound, the IC50 (A2780) was 8 nM.
`C=C(c1ccc(OC)c(C(=O)Nc2ccccc2N)c1)c1cc(C)nc2ccccc12` showed an IC50 (K562 [1]) of 22200 nM.
With `C=C(c1cccc(OCCCC(=O)NO)c1)c1cc(C)nc2ccccc12` the IC50 (K562 [1]) was 3000 nM.
`C=C(c1ccc(OC)c(C(=O)NO)c1)c1cc(C)nc2ccccc12` showed an IC50 (K562 [1]) of 1320 nM.
Compound `C=C(c1ccc(OC)c(OCCCCCC(=O)NO)c1)c1ccnc2ccccc12` has an IC50 (K562 [1]) of 3340 nM.
With `C=C(c1ccc(OC)c(OCC(=O)NO)c1)c1cc(C)nc2ccccc12` the IC50 (K562 [1]) was 8 nM, the IC50 (B16-F10) was 28 nM and the IC50 at 72 h [2] was 195 nM. It also gave an IC50 (MCF7) of 55 nM, an IC50 (MDA-MB-231) of 32 nM and an IC50 (A549) of 38 nM. The IC50 (A2780) was 16 nM.
`C=C(c1ccnc(OC)c1)c1ccc(OC)c(OCCCC(=O)NO)c1` showed an IC50 (K562 [1]) of 1140 nM.
`C=C(c1ccc(OC)c(O)c1)c1cc(COCC(=O)NO)nc2ccccc12` showed an inhibition at 1 µM (K562 [3]) of 71.5%, an inhibition at 0.1 µM (K562 [4]) of 6.41% and an inhibition at 0.01 µM (K562 [5]) of 0.83%.
`C=C(c1ccc(OC)c(OCCCC(=O)NO)c1)c1cc(C)nc2ccccc12` gave an IC50 (K562 [1]) of 173 nM.
With `C=C(c1ccnc(OC)c1)c1ccc(OC)c(OCC(=O)NO)c1` the IC50 (K562 [1]) was 55 nM.
`C=C(c1ccc(OC)c(OC(F)(F)C(=O)NO)c1)c1cc(C)nc2ccccc12` showed an IC50 (K562 [1]) of 204 nM.
With `C=C(c1ccc(OC)cc1)c1cc(/C=C/C(=O)NO)nc2ccccc12` the inhibition at 1 µM (K562 [3]) was 43.5%, the inhibition at 0.1 µM (K562 [4]) was 6.82% and the inhibition at 0.01 µM (K562 [5]) was 1.41%.
Compound `C=C(c1ccc2[nH]ccc2c1)c1cc(/C=C/C(=O)NO)nc2ccccc12` has an inhibition at 1 µM (K562 [3]) of 4.78%, an inhibition at 0.1 µM (K562 [4]) of 3.73% and an inhibition at 0.01 µM (K562 [5]) of 3.16%.
`C=C(c1ccnc(OC)c1)c1ccc(OC)c(OCCCCCC(=O)NO)c1` gave an IC50 (K562 [1]) of 3860 nM.
`C=C(c1cccc(OCCCCCC(=O)NO)c1)c1cc(C)nc2ccccc12` showed an IC50 (K562 [1]) of 9270 nM.
For `C=C(c1cccc(OC(C)C(=O)NO)c1)c1cc(C)nc2ccccc12` (stereo not drawn), the IC50 (K562 [1]) was 2370 nM.
For `C=C(c1ccnc(C)c1)c1ccc(OC)c(OCCCC(=O)NO)c1`, the IC50 (K562 [1]) was 1490 nM.
In the case of `C=C(c1ccc(OC)c(OCCCC(=O)NO)c1)c1ccnc2ccccc12`, the IC50 (K562 [1]) is reported as 1460 nM.
`C=C(c1cc(C)nc(C)c1)c1ccc(OC)c(OCC(=O)NO)c1` gave an IC50 (K562 [1]) of 26 nM, an IC50 (B16-F10) of 98 nM and an IC50 at 72 h [2] of 264 nM. The IC50 (MCF7) was 52 nM, the IC50 (MDA-MB-231) was 111 nM and the IC50 (A549) was 69 nM. The IC50 (A2780) was 36 nM.
`C=C(c1ccc(OC)c(/C=C/C(=O)NO)c1)c1cc(C)nc2ccccc12` gave an IC50 (K562 [1]) of 42 nM, an IC50 (B16-F10) of 15 nM and an IC50 at 72 h [2] of 311 nM. For the same compound, the IC50 (MCF7) was 17 nM, the IC50 (MDA-MB-231) was 11 nM and the IC50 (A549) was 9 nM. The IC50 (A2780) was 5 nM.
With `C=C(c1ccc2[nH]ccc2c1)c1cc(COCC(=O)NO)nc2ccccc12` the inhibition at 1 µM (K562 [3]) was 15%, the inhibition at 0.1 µM (K562 [4]) was 6.23% and the inhibition at 0.01 µM (K562 [5]) was 2.28%.
In the case of `C=C(c1ccc(OC)c(OCC(=O)NO)c1)c1ccnc2ccccc12`, the IC50 (K562 [1]) is reported as 79 nM.
`C=C(c1ccc(OC)c(OCCCCCC(=O)NO)c1)c1cc(C)nc2ccccc12` showed an IC50 (K562 [1]) of 2260 nM.
Compound `C=C(c1cccc(OCC(=O)NO)c1)c1cc(C)nc2ccccc12` has an IC50 (K562 [1]) of 2480 nM.
`C=C(c1ccc(OC)c(O)c1)c1cc(C(=O)Nc2ccccc2N)nc2ccccc12` showed an inhibition at 1 µM (K562 [3]) of 4.26%, an inhibition at 0.1 µM (K562 [4]) of 3.71% and an inhibition at 0.01 µM (K562 [5]) of 0.16%.
`C=C(c1ccnc(C)c1)c1ccc(OC)c(OCCCCCC(=O)NO)c1` gave an IC50 (K562 [1]) of 2880 nM.
`C=C(c1ccc(OC)cc1)c1cc(COCC(=O)NO)nc2ccccc12` gave an inhibition at 1 µM (K562 [3]) of 40%, an inhibition at 0.1 µM (K562 [4]) of 3% and an inhibition at 0.01 µM (K562 [5]) of 2.6%.
In the case of `C=C(c1cccc(OC(C)(C)C(=O)NO)c1)c1cc(C)nc2ccccc12`, the IC50 (K562 [1]) is reported as 6860 nM.
With `COc1ccc(/C=C\c2cc(OC)c(OC)c(OC)c2)cc1O` [COMBRETASTATIN A4] the inhibition at 1 µM (K562 [3]) was 95%, the inhibition at 0.1 µM (K562 [4]) was 88.4% and the inhibition at 0.01 µM (K562 [5]) was 86.6%. The IC50 (K562 [1]) was 7 nM, the IC50 (B16-F10) was 7 nM and the IC50 at 72 h [2] was 82 nM. The IC50 (MCF7) was 71 nM, the IC50 (MDA-MB-231) was 29 nM and the IC50 (A549) was 2 nM.
Compound `C=C(c1cc(C)nc(C)c1)c1ccc(OC)c(OCCCCCC(=O)NO)c1` has an IC50 (K562 [1]) of 1920 nM.
In the case of `C=C(c1ccnc(C)c1)c1ccc(OC)c(OC(C)C(=O)NO)c1` (stereo not drawn), the IC50 (K562 [1]) is reported as 60 nM.
For `C=C(c1ccc(OC)c(O)c1)c1cc(/C=C/C(=O)NO)nc2ccccc12`, the inhibition at 1 µM (K562 [3]) was 87.3%, the inhibition at 0.1 µM (K562 [4]) was 12.9% and the inhibition at 0.01 µM (K562 [5]) was -0.17%.
`C=C(c1ccc2[nH]ccc2c1)c1cc(C(=O)Nc2ccccc2N)nc2ccccc12` showed an inhibition at 1 µM (K562 [3]) of 2.75%, an inhibition at 0.1 µM (K562 [4]) of 2.75% and an inhibition at 0.01 µM (K562 [5]) of -0.17%.
For `C=C(c1cccc(OC/C=C/C(=O)NO)c1)c1cc(C)nc2ccccc12`, the IC50 (K562 [1]) was 2740 nM.
